Test results taken from patent US12077503B2, “Substituted cyclic amides and their use as herbicides” (FMC CORPORATION, priority 2015, dated 2024).

Assays:
Type in all cases: in vivo
[1] = system: giant foxtail (Setaria faberii); assay: Test A preemergence
In short: (§1)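 Preemergence soil spray on seeded pots or post-emergence spray on 1–2 leaf plants, in loam–sand blend. Greenhouse ~10 d. Visual rating 0–100 against untreated plants.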

[2] = system: barnyardgrass (Echinochloa crus-galli); assay: Test A preemergence
In short: as §1

[3] = system: ragweed (common ragweed, Ambrosia elatior); assay: Test A preemergence
In short: as §1

[4] = system: pigweed (Amaranthus retroflexus); assay: Test A preemergence
[5] = system: Kochia (Kochia scoparia); assay: Test A preemergence
In short: as §1

[6] = system: ryegrass, Italian (Italian ryegrass, Lolium multiflorum); assay: Test A preemergence
In short: as §1

[7] = system: barnyardgrass (Echinochloa crus-galli); assay: Test B flooded paddy test; conditions: Flood, 250 g ai/ha; for Plant response rating, Barnyardgrass: 0 to 100 scale where 0 is no effect and 100 is complete control, 13 to 15 d
In short: (§2)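 Percent control, visually estimated after 13–15 d in the greenhouse on a 0–100 basis, compares treated pots with untreated ones; compound was put into paddy water 3 cm above the soil when plants had two leaves.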

[8] = system: sedge, umbrella (small-flower umbrella sedge, Cyperus difformis); assay: Test B flooded paddy test; conditions: Flood, 250 g ai/ha; for Plant response rating, Sedge, Umbrella: 0 to 100 scale where 0 is no effect and 100 is complete control, 13 to 15 d
In short: as §2

[9] = system: rice (Oryra sativa); assay: Test B flooded paddy test; conditions: Flood, 250 g ai/ha; for Plant response rating, Rice: 0 to 100 scale where 0 is no effect and 100 is complete control, 13 to 15 d
In short: as §2

[10] = system: ducksalad (Heteranthera limosa); assay: Test B flooded paddy test; conditions: Flood, 250 g ai/ha; for Plant response rating, Ducksalad: 0 to 100 scale where 0 is no effect and 100 is complete control, 13 to 15 d
In short: as §2

[11] = system: wheat (Triticum aestivum); assay: Test A postemergence
In short: as §1

[12] = system: giant foxtail (Setaria faberii); assay: Test A postemergence
In short: as §1

[13] = system: barnyardgrass (Echinochloa crus-galli); assay: Test A postemergence
In short: as §1

[14] = system: ragweed (common ragweed, Ambrosia elatior); assay: Test A postemergence
In short: as §1

[15] = system: pigweed (Amaranthus retroflexus); assay: Test A postemergence
In short: as §1

[16] = system: corn (Zea mays); assay: Test A postemergence
In short: as §1

[17] = system: Galium (catchweed bedstraw, Galium aparine); assay: Test A postemergence
In short: as §1

[18] = system: Kochia (Kochia scoparia); assay: Test A postemergence
In short: as §1

[19] = system: ryegrass, Italian (Italian ryegrass, Lolium multiflorum); assay: Test A postemergence
In short: as §1

[20] = system: blackgrass (Alopecurus myosuroides); assay: Test A postemergence
In short: as §1

[21] = 125 g ai/ha, preemergence, 0 to 100 scale where 0 is no effect and 100 is complete control
[22] = 500 g ai/ha, Preemergence, visual injury vs untreated controls after approximately 10 d
[23] = scale of 0 to 100 where 0 is no effect and 100 is complete control
[24] = 125 g ai/ha, postemergence, visual injury rating after approximately 10 d
[25] = 125 g ai/ha, Preemergence, visual injury after approximately 10 d, 0 to 100 scale where 0 is no effect and 100 is complete control
[26] = 500 g ai/ha, preemergence, 0 to 100 scale, 0 = no effect, 100 = complete control
[27] = 125 g ai/ha, postemergence, visual rating after approx. 10 d, 0 to 100 scale (0 no effect, 100 complete control)
[28] = 500 g ai/ha, postemergence, visual injury, 0 to 100 scale (0 no effect, 100 complete control), approx. 10 d
[29] = Preemergence, 500 g ai/ha, visual injury approx. 10 d
[30] = 125 g ai/ha, postemergence, visual injury rating on 0 to 100 scale (0 no effect, 100 complete control), approx. 10 d
[31] = Postemergence, 500 g ai/ha, 0 to 100 scale where 0 is no effect and 100 is complete control
[32] = 125 g ai/ha, preemergence, 0 to 100 scale (0 no effect, 100 complete control)
[33] = Preemergence, 500 g ai/ha, 0 is no effect, 100 is complete control
[34] = 500 g ai/ha, postemergence, 0 to 100 scale, 0 no effect, 100 complete control
[35] = Postemergence, 125 g ai/ha, visual injury, 0 to 100 scale (0 no effect, 100 complete control), approx. 10 d

O=C1NC[C@H](c2cccc(C(F)(F)F)c2)[C@H]1C(=O)Nc1ccccc1[N+](=O)[O-] [Compound 825]
Foxtail, Giant plant response rating [1, 21]: 90
Foxtail, Giant plant response rating (0 to 100 scale where 0 is no effect and 100 is complete control) [1, 22]: 90
Barnyardgrass plant response rating [2, 21]: 70
Barnyardgrass plant response rating (0 to 100 scale where 0 is no effect and 100 is complete control) [2, 22]: 90
Ragweed plant response rating [3, 21]: 20
Ragweed plant response rating (0 to 100 scale where 0 is no effect and 100 is complete control) [3, 22]: 20
Pigweed plant response rating [4, 21]: 0
Pigweed plant response rating (0 to 100 scale where 0 is no effect and 100 is complete control) [4, 22]: 30
Kochia plant response rating [5, 21]: 20
Kochia plant response rating (0 to 100 scale where 0 is no effect and 100 is complete control) [5, 22]: 60
Ryegrass, Italian plant response rating [6, 21]: 20
Ryegrass, Italian plant response rating (0 to 100 scale where 0 is no effect and 100 is complete control) [6, 22]: 40
Barnyardgrass plant response rating [7, 23]: 0
Sedge, Umbrella plant response rating [8, 23]: 0
Rice plant response rating [9, 23]: 25
Ducksalad plant response rating [10, 23]: 80
Wheat plant response rating (0 to 100 scale, 0 no effect, 100 complete control) [11, 24]: 40
Foxtail, Giant plant response rating (0 to 100 scale, 0 no effect, 100 complete control) [12, 24]: 90
Barnyardgrass plant response rating (0 to 100 scale, 0 no effect, 100 complete control) [13, 24]: 80
Ragweed plant response rating (0 to 100 scale, 0 no effect, 100 complete control) [14, 24]: 20
Pigweed plant response rating (0 to 100 scale, 0 no effect, 100 complete control) [15, 24]: 0
Corn plant response rating (0 to 100 scale, 0 no effect, 100 complete control) [16, 24]: 20
Galium plant response rating (0 to 100 scale, 0 no effect, 100 complete control) [17, 24]: 30
Kochia plant response rating (0 to 100 scale, 0 no effect, 100 complete control) [18, 24]: 0
Ryegrass, Italian plant response rating (0 to 100 scale, 0 no effect, 100 complete control) [19, 24]: 20
Blackgrass plant response rating (0 to 100 scale, 0 no effect, 100 complete control) [20, 24]: 40

CN1CC(c2cc(F)cc(F)c2)C(C(=O)Nc2cccc3c2CCC3)C1=O (centres unmarked) [Compound 659]
Plant response rating, Foxtail, Giant [1, 25]: 90
Plant response rating, Foxtail, Giant [1, 26]: 90
Plant response rating, Barnyardgrass [2, 25]: 90
Plant response rating, Barnyardgrass [2, 26]: 90
Plant response rating, Ragweed [3, 25]: 0
Plant response rating, Ragweed [3, 26]: 0
Plant response rating, Pigweed [4, 25]: 0
Plant response rating, Pigweed [4, 26]: 0
Plant response rating, Kochia [5, 25]: 0
Plant response rating, Kochia [5, 26]: 0
Plant response rating, Ryegrass, Italian [6, 25]: 0
Plant response rating, Ryegrass, Italian [6, 26]: 30
Plant response rating, Barnyardgrass [7]: 60
Plant response rating, Sedge, Umbrella [8]: 0
Plant response rating, Rice [9]: 15
Plant response rating, Ducksalad [10]: 80
Plant response rating, Wheat [11, 27]: 0
Plant response rating, Wheat [11, 28]: 50
Plant response rating, Foxtail, Giant [12, 27]: 90
Plant response rating, Foxtail, Giant [12, 28]: 90
Plant response rating, Barnyardgrass [13, 27]: 70
Plant response rating, Barnyardgrass [13, 28]: 90
Plant response rating, Ragweed [14, 27]: 0
Plant response rating, Ragweed [14, 28]: 0
Plant response rating, Pigweed [15, 27]: 0
Plant response rating, Pigweed [15, 28]: 0
Plant response rating, Corn [16, 27]: 0
Plant response rating, Corn [16, 28]: 50
Plant response rating, Galium [17, 27]: 0
Plant response rating, Galium [17, 28]: 20
Plant response rating, Kochia [18, 27]: 20
Plant response rating, Kochia [18, 28]: 20
Plant response rating, Ryegrass, Italian [19, 27]: 0
Plant response rating, Ryegrass, Italian [19, 28]: 60
Plant response rating, Blackgrass [20, 27]: 40
Plant response rating, Blackgrass [20, 28]: 50

CS(=O)(=O)c1ccccc1NC(=O)C1C(=O)NCC1c1ccc(C2CC2)cc1 (racemic) [Compound 502]
Plant response rating, Foxtail, Giant [1, 25]: 80
Foxtail, Giant plant response rating (0 to 100 scale, 0 is no effect, 100 is complete control) [1, 29]: 90
Plant response rating, Barnyardgrass [2, 25]: 0
Barnyardgrass plant response rating (0 to 100 scale, 0 is no effect, 100 is complete control) [2, 29]: 60
Plant response rating, Ragweed [3, 25]: 0
Ragweed plant response rating (0 to 100 scale, 0 is no effect, 100 is complete control) [3, 29]: 50
Plant response rating, Pigweed [4, 25]: 0
Pigweed plant response rating (0 to 100 scale, 0 is no effect, 100 is complete control) [4, 29]: 30
Plant response rating, Kochia [5, 25]: 0
Kochia plant response rating (0 to 100 scale, 0 is no effect, 100 is complete control) [5, 29]: 70
Plant response rating, Ryegrass, Italian [6, 25]: 0
Ryegrass, Italian plant response rating (0 to 100 scale, 0 is no effect, 100 is complete control) [6, 29]: 30
Plant response rating, Barnyardgrass [7]: 0
Plant response rating, Sedge, Umbrella [8]: 0
Plant response rating, Rice [9]: 0
Plant response rating, Ducksalad [10]: 70
Wheat plant response rating [11, 30]: 0
Plant response rating, Wheat [11, 31]: 0
Foxtail, Giant plant response rating [12, 30]: 20
Plant response rating, Foxtail, Giant [12, 31]: 50
Barnyardgrass plant response rating [13, 30]: 0
Plant response rating, Barnyardgrass [13, 31]: 60
Ragweed plant response rating [14, 30]: 0
Plant response rating, Ragweed [14, 31]: 0
Pigweed plant response rating [15, 30]: 0
Plant response rating, Pigweed [15, 31]: 0
Corn plant response rating [16, 30]: 0
Plant response rating, Corn [16, 31]: 30
Galium plant response rating [17, 30]: 20
Plant response rating, Galium [17, 31]: 50
Kochia plant response rating [18, 30]: 0
Plant response rating, Kochia [18, 31]: 20
Ryegrass, Italian plant response rating [19, 30]: 0
Plant response rating, Ryegrass, Italian [19, 31]: 30
Blackgrass plant response rating [20, 30]: 0
Plant response rating, Blackgrass [20, 31]: 20

Cc1cccc(C2CNC(=O)C2C(=O)Nc2ccccc2F)c1 (racemic) [Compound 372]
Plant response rating, Foxtail, Giant [1, 32]: 80
Foxtail, Giant plant response rating (0 to 100 scale) [1, 33]: 90
Plant response rating, Barnyardgrass [2, 32]: 90
Barnyardgrass plant response rating (0 to 100 scale) [2, 33]: 90
Plant response rating, Ragweed [3, 32]: 0
Ragweed plant response rating (0 to 100 scale) [3, 33]: 30
Plant response rating, Pigweed [4, 32]: 0
Pigweed plant response rating (0 to 100 scale) [4, 33]: 50
Plant response rating, Kochia [5, 32]: 0
Kochia plant response rating (0 to 100 scale) [5, 33]: 0
Plant response rating, Ryegrass, Italian [6, 32]: 0
Ryegrass, Italian plant response rating (0 to 100 scale) [6, 33]: 30
Plant response rating, Barnyardgrass [7]: 60
Plant response rating, Sedge, Umbrella [8]: 0
Plant response rating, Rice [9]: 35
Plant response rating, Ducksalad [10]: 100
Plant response rating, Wheat [11, 34]: 20
Plant response rating, Wheat [11, 35]: 0
Plant response rating, Foxtail, Giant [12, 34]: 70
Plant response rating, Foxtail, Giant [12, 35]: 50
Plant response rating, Barnyardgrass [13, 34]: 80
Plant response rating, Barnyardgrass [13, 35]: 80
Plant response rating, Ragweed [14, 34]: 0
Plant response rating, Ragweed [14, 35]: 0
Plant response rating, Pigweed [15, 34]: 30
Plant response rating, Pigweed [15, 35]: 20
Plant response rating, Corn [16, 34]: 20
Plant response rating, Corn [16, 35]: 0
Plant response rating, Galium [17, 34]: 20
Plant response rating, Galium [17, 35]: 0
Plant response rating, Kochia [18, 34]: 40
Plant response rating, Kochia [18, 35]: 0
Plant response rating, Ryegrass, Italian [19, 34]: 40
Plant response rating, Ryegrass, Italian [19, 35]: 20
Plant response rating, Blackgrass [20, 34]: 30
Plant response rating, Blackgrass [20, 35]: 20
